Test results published in BindingDB's records for doi:10.1021/jm040190e (National Institute On Drug Abuse-Intramural Research Program, 2005).

experiment: Mitogenic stimulation or antagonism of 30 nM quinpirole-stimulated mitogenesis in CHO cells expressing human dopamine D3 receptor

Structure (SMILES) | IC50
O=C(NCCCCN1CCN(c2cccc(Cl)c2Cl)CC1)c1ccc(-c2ccccn2)cc1 [N-{4-[4-(2,3-Dichloro-phenyl)-piperazin-1-yl]-butyl}-4-pyridin-2-yl-benzamide] | 6.31 nM
O=C(NC/C=C/CN1CCN(c2cccc(Cl)c2Cl)CC1)c1ccc2c(c1)Cc1ccccc1-2 [N-(4-(4-(2,3-dichlorophenyl)piperazin-1-yl)but-2-enyl)-9H-fluorene-2-carboxamide] | 173 nM

More lines, now with the values ahead:

IC50 | Structure (SMILES)
24.1 nM | O=C(NC/C=C/CN1CCN(c2cccc(Cl)c2Cl)CC1)c1ccc(I)cc1 [N-{4-[4-(2,3-Dichloro-phenyl)-piperazin-1-yl]-but-2-enyl}-4-iodo-benzamide]
4.79 nM | COc1ccc(C(=O)NC/C=C/CN2CCN(c3cccc(Cl)c3Cl)CC2)cc1 [N-{4-[4-(2,3-Dichloro-phenyl)-piperazin-1-yl]-but-2-enyl}-4-methoxy-benzamide]
2.2 nM | O=C(NC/C=C/CN1CCN(c2cccc(Cl)c2Cl)CC1)c1ccc([N+](=O)[O-])cc1 [N-{(E)-4-[4-(2,3-Dichloro-phenyl)-piperazin-1-yl]-but-2-enyl}-4-nitro-benzamide]
1 nM | O=C(NC/C=C/CN1CCN(c2cccc(Cl)c2Cl)CC1)c1ccc(O)cc1 [N-{4-[4-(2,3-Dichloro-phenyl)-piperazin-1-yl]-but-2-enyl}-4-hydroxy-benzamide]
